Values of other authors as cited in publication PMC12697872, “Rethinking the AI Paradigm for Solubility Prediction of Drug‑Like Compounds with Dual‐Perspective Modeling and Experimental Validation” (Advanced Science, 2025).

Conditions: experimental aqueous solubility as logS, sheet "DrugBank" of Supplement 2; ref DrugBank; cited from earlier work

Compound	ex_logS
CC(O)(CS(=O)(=O)c1ccc(F)cc1)C(=O)Nc1ccc(C#N)c(C(F)(F)F)c1 (stereo not shown) [Bicalutamide]	-4.935
O=C(O)c1ccccc1Nc1cccc(C(F)(F)F)c1 [Flufenamic acid]	-4.4905
CCCC(C)(COC(N)=O)COC(N)=O [Meprobamate]	-1.667
NCC[C@H](O)C(=O)N[C@@H]1C[C@H](N)[C@@H](O[C@H]2O[C@H](CN)[C@@H](O)[C@H](O)[C@H]2O)[C@H](O)[C@H]1O[C@H]1O[C@H](CO)[C@@H](O)[C@H](N)[C@H]1O [Amikacin]	-1.069
Cn1c(=O)c2[nH]cnc2n(C)c1=O [Theophylline]	-1.389
Streptozocin	-1.7186
CN1C(=O)NC(=O)C(C)(C2=CCCCC2)C1=O (stereo not shown) [Hexobarbital]	-2.735
CCN1C(=O)NC(c2ccccc2)C1=O (stereo not shown) [Ethotoin]	-1.587
Cn1nnc2c(C(N)=O)ncn2c1=O [Temozolomide]	-1.581
S=c1[nH]cnc2nc[nH]c12 [Mercaptopurine]	-3.089
Cc1ccccc1N1C(=O)c2cc(S(N)(=O)=O)c(Cl)cc2NC1C (stereo not shown) [Metolazone]	-3.783
Cc1cccc(N(C)C(=S)Oc2ccc3ccccc3c2)c1 [Tolnaftate]	-6.641

Same assay, conditions: experimental aqueous solubility as logS, sheet "DrugBank"; ref DrugBank database; cited from earlier work

Compound	ex_logS
O=C(O)c1ccc2ccccc2n1 [Quinaldic Acid]	-1.092
COc1ccc2c(c1)c(CC(=O)O)c(C)n2C(=O)c1ccc(Cl)cc1 [Indomethacin]	-5.582
OC[C@H]1O[C@@H](n2cnc3cncnc32)[C@H](O)[C@@H]1O [Nebularine]	-0.4018
C[C@@H]1O[C@@H](O[C@H]2C[C@@H](O)[C@]3(CO)[C@H]4[C@H](O)C[C@]5(C)[C@@H](C6=CC(=O)OC6)CC[C@]5(O)[C@@H]4CC[C@]3(O)C2)[C@H](O)[C@H](O)[C@H]1O [Ouabain]	-1.754
CCc1cccc2c3c([nH]c12)C(CC)(CC(=O)O)OCC3 (stereo not shown) [Etodolac]	-4.2543
NS(=O)(=O)Cc1noc2ccccc12 [Zonisamide]	-2.424
O=C(O)Cc1ccccc1Nc1c(Cl)cccc1Cl [Diclofenac]	-5.097
C#CC1(OC(N)=O)CCCCC1 [Ethinamate]	-1.825
CCOC(=O)[C@H](CCc1ccccc1)N[C@@H](C)C(=O)N1[C@H](C(=O)O)C[C@@H]2CCC[C@@H]21 [Ramipril]	-5.076
CC1(C)S[C@@H]2[C@H](/N=C/N3CCCCCC3)C(=O)N2[C@H]1C(=O)O [Amdinocillin]	-4.5
NS(=O)(=O)c1cc2c(cc1C(F)(F)F)NC(Cc1ccccc1)NS2(=O)=O (stereo not shown) [Bendroflumethiazide]	-3.591
CC(=O)[C@@]1(O)CC[C@H]2[C@@H]3C[C@H](C)C4=CC(=O)C=C[C@]4(C)[C@@]3(F)[C@@H](O)C[C@@]21C [Fluorometholone]	-4.0986
CC(C)(C#N)c1cc(Cn2cncn2)cc(C(C)(C)C#N)c1 [Anastrozole]	-2.743
Oc1c(Cl)cc(Cl)cc1Sc1cc(Cl)cc(Cl)c1O [Bithionol]	-4.949
CC[C@H](C)[C@H](N)C(=O)O [Isoleucine]	-0.5813
O=C(O)c1ccccc1O [Salicylic acid]	-1.79
Cc1onc(-c2c(Cl)cccc2Cl)c1C(=O)N[C@@H]1C(=O)N2[C@@H]1SC(C)(C)[C@@H]2C(=O)O [Dicloxacillin]	-5.112
OCc1ccccc1 [Benzyl alcohol]	-0.5155
CCn1cc(C(=O)O)c(=O)c2ccc(-c3ccncc3)cc21 [Rosoxacin]	-4.149
CCOc1ccc(Nc2ccc(/C(=C3C=C/C(=[N+](/CC)Cc4cccc(S(=O)(=O)[O-])c4)C=C/3C)c3ccc(N(CC)Cc4cccc(S(=O)(=O)O)c4)cc3C)cc2)cc1 [Brilliant blue G]	-2.931
COc1cc2c(c(OC)c1OC)-c1ccc(OC)c(=O)cc1[C@@H](NC(C)=O)CC2 [Colchicine]	-0.9632
CC(C)/N=c1\cc2n(-c3ccc(Cl)cc3)c3ccccc3nc-2cc1Nc1ccc(Cl)cc1 [Clofazimine]	-6.323
